Literature values in patent publication US7767881B2, “Utilization of histamine receptor h3 gene participating in body weight or food intake control” (priority 2001, dated 2010).

Tests used:
[1] = system: histamine neuron
[2] = experimental epilepsy model
[3] = system: rats
[4] = system: cats
[5] = system: mice
[6] = system: mice; remark: listed apart in the source
[7] = system: mice; remark: listed apart in the source
[8] = system: senescence-accelerated mice; settings: senescence-accelerated mice with learning disabilities

CCCN(CCC)C1CCc2cccc(O)c2C1 (centres unmarked) [8-OH-DPAT]
histamine neuron metabolic turnover [1]: reduce histamine neuron metabolic turnover

NC(=NCc1ccc(Cl)cc1)SCCCc1cnc[nH]1 [Clobenpropit]
electroconvulsion [2]: suppressed

C[C@@H](N)Cc1c[nH]cn1 [RAMH, R-α-methylhistamine]
voluntary movement [3]: decreases voluntary movement
deep slow-wave sleep ([4]; administration of the agonist): significant increase in deep slow-wave sleep
voluntary movement [5]: decreases voluntary movement

O=C1CC2(CCCC2)CC(=O)N1CCCCN1CCN(c2ncccn2)CC1 [buspirone]
histamine neuron metabolic turnover [1]: reduce histamine neuron metabolic turnover

Clc1cccc(Cl)c1NC1=NCCN1 [clinidine]
histamine neuron metabolic turnover [1]: reduce histamine neuron metabolic turnover

NCCc1c[nH]cn1 [histamine]
analgesic/algesic action ([6]; mice, intracerebral administration): analgesic and/or algesic action, depending on the dose

S=C(NC1CCCCC1)N1CCC(c2cnc[nH]2)CC1 [thioperamide]
anxiety [7]: anxiety-inducing effects
learning [8]: improving learning
analgesia ([6]; due to stimulation of the histamine receptor H1 protein, antagonized by RAMH): attenuation of analgesia
waking ([4]; effect antagonized by RAMH): waking effects were observed
effect on RAMH-induced increase in deep slow-wave sleep ([4]; given against RAMH): reversed
electroconvulsion [2]: suppressed
